Experimental findings from patent US20140242093A1, “METHODS AND COMPOSITIONS FOR MODULATING THE INNATE IMMUNE RESPONSE AND/OR MYOGENESIS IN A MAMMALIAN SUBJECT” (FRED HUTCHINSON CANCER RESEARCH CENTER, priority 2011, published 2014) are described below.

One test has as its system FSHD muscle cells. The experiment in a line: DUX4-fl mRNA RT-PCR in FSHD muscle cells treated with MAO inhibitors. The class given is cell-based, human. As to conditions: for abundance of DUX4-fl mRNA: quantitative RT-PCR, FIG. 4. From the text: Middle panel is a no RT control and bottom panel is a GAPDH loading control.
For the next test, the system named is HCT116 cells. The experiment in a line: RT-PCR of DUX4-fl and cancer testis antigens in HCT116 cells treated with azacytidine. The test is classed as cell-based, human. As for the experimental part:
The relative expression of the CTA in each row was measured by RT-PCR and represented as high (light shading) or low (dark shading).

The test system of the next test is FSHD fibroblasts. As to the kind of experiment: DUX4 mRNA decay with cycloheximide in FSHD fibroblasts with inducible MyoD. The class given is cell-based, human. To be noted: 38 hours in differentiation conditions, MyoD induction. Here is the method: FSHD fibroblasts expressing low amounds of DUX4 mRNA were stably transduced with a beta-estradiol inducible MyoD so that addition of beta-estradiol will convert them to skeletal muscle, which after 96 hours of induction increases the steady-state levels of the DUX4 mRNA and activates expression of the MyoD target Mgn. […] Washout of the chx results in the rapid loss of the DUX4 mRNA, disappearing between 2 and 8 hrs of washout. The loss of DUX4 mRNA is associated with its translation since the DUX4 target PRAME 1 is induced as the DUX4 mRNA disappears.

For test [1], the system named is control human primary myoblasts. The experiment in a line: Expression microarray of primary myoblasts transduced with lentivirus carrying DUX4-fl, DUX4-s or GFP. Here is the method:
Primary human myoblasts were collected and cultured as previously described (Snider et al., 2010). Primary myoblasts were maintained at or below 70% confluency for proliferation. For differentiation, cells were allowed to reach 95-100% confluency in growth medium. Once confluency was reached, the cells were changed to differentiation medium (F10 media supplemented with 1% horse serum, 10 μg/mL insulin, and 10 μg/mL transferrin, penicillin/streptomycin) and maintained for 4 days. Human RD cells were grown in DMEM in 10% bovine calf serum (Hyclone) and penicillin/streptomycin. The primary myoblasts were transduced with lentivirus carrying DUX-fl, DUX4- or GFP (MOI=15).
Expression microarrays were performed on the transduced cells at 24 hours after transduction as follows. […] Samples were analyzed by Illumina Human Whole Genome microarrays. Probe intensities were corrected, normalized, and summarized by the Lumi package of Bioconductor (Du et al., 2008). Differentially expressed genes were identified by the LIMMA package of Bioconductor (Wettenhall and Smyth, 2004). Gene set enrichment analysis (GSEA) was performed using the Bioconductor GOstats package (Falcon and Gentleman, 2007).

The next test concerns Human FSHD myoblasts. As to the kind of experiment: siRNA knock-down of UPF1 in FSHD myoblasts. The test is classed as cell-based. Here is the method: Method for transfection of myoblasts with siUPF1 (siRNA against UPF1): Human FSHD myoblasts were plated for transfection at 30% confluency in F10 media containing 20% FBS and no antibiotics. siRNA targeting siUPF1 (ThermoScientific) was transfected at 100 nM final concentration using Lipofectamine 2000 according to manufacturers protocol. siLuciferase was used as a negative control. Following overnight incubation of cells with transfection complexes the cells were washed with PBS and fed fresh growth media: F10 media, 20% FBS, dexamethasone (1 uM) and fgf (10 ng/ml). When cultures reached confluency growth media was replaced with serum free differentiation media (F10 media, insulin and transferrin at 10 ug/ml each) and culture continued for 48 hours. Total RNA was isolated using Qiagen RNeasy columns and analysis for expression of Dux4 mRNA and for target gene activation was performed.

In the case of `N[C@@H]1C[C@H]1c1ccccc1` (racemic) [tranylcypromine], the “abundance of DUX4-fl mRNA” value in the test with FSHD muscle cells is “had no inhibitory effect”.
As to `Nc1ncn([C@@H]2O[C@H](CO)[C@@H](O)[C@H]2O)c(=O)n1` [5-azacytidine], in the test on HCT116 cells (RT-PCR heat map FIG. 3, HCT116 cells), the “expression of cancer testis antigens” value was “robust induction”. The DUX4-fl expression result in the test on HCT116 cells (RT-PCR, HCT116 cells) is on record as “induces the expression of DUX4-fl”.
As for `C[C@@H]1C[C@@H]([C@H](O)CC2CC(=O)NC(=O)C2)C(=O)[C@@H](C)C1` [cycloheximide], the “DUX4 mRNA” value in the test with FSHD fibroblasts is listed as “significant increase in DUX4 mRNA”.
Consider `C#CCN(C)Cc1ccccc1` [pargyline, N-Benzyl-N-methylprop-2-yn-1-amine], for which, in the test with FSHD muscle cells (RT-PCR, 48 hours in differentiation medium, varying amounts, FIG. 5), the “DUX4 mRNA expression” value is “dose-dependent inhibition of DUX4 expression”. In addition, the “abundance of DUX4-fl mRNA” value in the test with FSHD muscle cells was “decreases the abundance of DUX4-fl mRNA in a dose-dependent manner”.
Consider DUX4, for which the Fc range in test [1] (Family with sequence similarity 90: FAM90A1, FAM90A2P, FAM90A6P, FAM90A7) is recorded as 9-19; in test [1] (KH homology domain containing family: KHDC1, KHDC1L), 108-258; in test [1] (Methyl-binding protein-like family: MBD3L2, MBD3L3, MBD3L5) it was 197-310; in test [1] (Preferentially expressed in melanoma family: PRAMEF1, PRAMEF2, PRAMEF4-15, PRAMEF17, PRAMEF20) it was 9-269; in test [1] (Ret-finger Protein-like family: RFPL1, RFPL1S, RFPL2, RFPL3, RFPL4A, RFPL4B), 20-336; in test [1] (Tripartite motif-containing family: TRIM43, TRIM48, TRIM49, TRIM53, TRIM64), 27-235. The Fc range in test [1] (Zinc finger and SCAN domain containing family: ZSCAN4, ZSCAN5B, ZSCAN5D) is 13-320.
GAUGCAGUUCCGCUCCAUUUU [siUPF1]: the “expression of DUX4 target gene ZSCAN4” value in the test on Human FSHD myoblasts (RT-qPCR) is recorded as “increases”. Moreover, the “DUX4 mRNA” value in the test with Human FSHD myoblasts (semiquantitative RT-PCR, differentiation medium, vs siluc) was “at higher levels”.
